Tested on: animal models of acute brain injuries such as intracranial hemorrhage
Test: animal models of acute brain injuries such as intracranial hemorrhage
Type: in vivo
Text: MW189 is a novel small molecule drug candidate developed as a selective suppressor of disease- and injury-induced proinflammatory cytokine overproduction associated with destructive neuroinflammation/synaptic dysfunction cycles. […] The investigators seek to establish if these targets are modified in humans with intracranial hemorrhage.

Compound: c1ccc(-c2cc(-c3ccncc3)c(N3CCN(c4ncccn4)CC3)nn2)cc1 [MW189]
- cerebral edema: reduces cerebral edema
- functional and cognitive performance: improves functional and cognitive performance
- neuroinflammation: attenuates neuroinflammation
